Where two headings read alike, the source gives them in different places. Marks after values point to notes of the source that are not given here.
Columns and labels:
[1] = target: T1, CAMKK2-KD (kinase domain of CAMKK2) (Homo sapiens, UniProt Q96RR4); experiment: DSF thermal-shift screen, 384-well format; format: binding; conditions: 10 µM compound, 1 µM kinase, 0.1% DMSO, single measurement
T1 construct: the protein kinase domain (amino acids 161–449); hexahistidine (6xHis), TEV-cleavable; made in house
T1 sequence (Q96RR4 161-449): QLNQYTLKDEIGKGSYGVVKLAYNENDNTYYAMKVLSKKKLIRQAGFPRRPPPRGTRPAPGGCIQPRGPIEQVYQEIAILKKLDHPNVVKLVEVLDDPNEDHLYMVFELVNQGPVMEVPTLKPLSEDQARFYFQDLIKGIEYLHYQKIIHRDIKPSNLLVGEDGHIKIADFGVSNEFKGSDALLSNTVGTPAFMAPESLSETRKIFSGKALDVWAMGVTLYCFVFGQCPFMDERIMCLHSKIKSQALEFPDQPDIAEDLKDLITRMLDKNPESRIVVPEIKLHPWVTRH
Protocol: (§1) We employed a thermal-shift assay (Differential Scanning Fluorimetry, DSF)[19] to identify compounds that can bind to the kinase domain of CAMKK2 (CAMKK2-KD). Protein thermal denaturation curves (Fig. 1A,B) were used to calculate the denaturation midpoint temperature (Tm) for the kinase domain of CAMKK2 in the presence of ligands or vehicle only (DMSO). […] DSF screens were performed on purified CAMKK2-KD using a library of commercially available, chemically diverse, ATP-competitive, kinase inhibitors.
DSF experiments in 384-well format followed a protocol previously established at the SGC-UNICAMP and described elsewhere.
The compounds, previously solubilized in DMSO, were used at 10 µM final concentration and 0.1% DMSO. Plates were sealed using optically clear films and transferred to a QuantStudio 6 qPCR instrument (Applied Biosystems). […] Protein in 0.1% DMSO was used as a reference.
(§2) For both formats, experiments were performed in singlets.

CAMKK2-FL = target: T2, CAMKK2-FL (Homo sapiens, UniProt Q96RR4); experiment: Radiometric enzymatic assay (Eurofins Discovery), Ca2+/Calmodulin present; format: biochemical; conditions: for IC50: 90 µM ATP, single measurement
T2 construct: an enzymatic assay using the full-length protein (CAMKK2-FL); purchased Eurofins Discovery (MO, USA), assay service

CAMKK2-KD = CAMKK2-KD (Homo sapiens, UniProt Q96RR4); experiment: Isothermal titration calorimetry (reverse titration); conditions: 20 °C
Sequence of CAMKK2-KD (Q96RR4 161-449): as above
Protocol: All ITC experiments described below were performed twice.
Measurements were made using a MicroCal AutoITC200 (Malvern, United Kingdom). […] Small molecule inhibitors were diluted in dialysis buffer. All ITC experiments were performed using a “reverse titration” setup in which the protein (in the syringe) was titrated into the cell containing the inhibitor. Two independent ITC measurements were performed for each compound, data for individual runs were integrated separately to obtain single isotherms, which were plotted and analyzed using Sedphat[37]. […] All measurements were made at 20 °C with mixing (1,000 rpm stirring), and used 1.5 µL injections and 180 s between each injection. NITPIC, SEDPHAT and GUSSI[37] were used to analyze and generate figures for ITC data.

CAMKK1-FL = target: T3, CAMKK1-FL (Homo sapiens, UniProt Q8N5S9); experiment: Radiometric enzymatic assay (Eurofins Discovery), Ca2+/Calmodulin present; format: biochemical; conditions: 200 µM ATP; single measurement
T3 construct: purchased Eurofins Discovery (MO, USA), assay service
Protocol: All compounds employed in this study were initially developed to target other human protein kinases, and some are known to be quite promiscuous[18],[21].
Reaction conditions for assays using CAMKK1-FL were: 8 mM MOPS pH 7.0, 0.2 mM EDTA, 0.33 mg/mL MBP (myelin basic protein), 0.5 mM calcium chloride, 0.016 mg/ml calmodulin, 10 mM magnesium acetate and [gamma-^33P-ATP] (200 µM). […] The reactions were initiated by the addition of a Mg^2+-ATP mixture. After incubation for 40 minutes at room temperature, the reaction was stopped by the addition of phosphoric acid to a final concentration of 0.5%. […] Following subtraction of the average inhibitor control well counts, results were expressed as a percentage of the mean kinase activity in the positive control sample.

[2] = target: T1, CAMKK2-KD (kinase domain of CAMKK2); experiment: DSF thermal-shift screen, 96-well format; format: binding; conditions: for ΔTm at 12 µM: read-out: ΔTm
Protocol: as §1
SYPRO Orange dye (Invitrogen) was used in 5X as final concentration.
Plates were sealed using optically clear films and transferred to an Mx3005p RT-PCR machine (Agilent).
as §2

[3] = individual ITC experiment, run 1
[4] = individual ITC experiment, run 2
[5] = 96-well format, 12 µM compound, 2 µM kinase, 2.5% DMSO, single measurement

Cc1[nH]nc2ccc(-c3cncc(OC[C@@H](N)Cc4ccccc4)c3)cc12 [A-674563]
ΔTm [1]: 4.7 °C

COc1cc(N2CCC(N(C)C)CC2)ccc1Nc1ncc(Cl)c(Nc2ccccc2P(C)(C)=O)n1 [ALK-IN-1]
fold more active towards CAMKK2-FL than CAMKK1-FL (CAMKK2-FL; from IC50 values of Table 1): ~ 10 fold
ΔTm [1]: 11.2^d °C
ΔH Run 1 (CAMKK2-KD; [3]): -43.0 kJ/mol
ΔG Run 2 (CAMKK2-KD; [4]): -45.7 kJ/mol
ΔH Run 2 (CAMKK2-KD; [4]): -40.7 kJ/mol
Kd (CAMKK2-KD; read-out: ITC KD, serial integrations of two independent experiments): 2 nM
Kd (CAMKK2-KD; read-out: KD Run 1, individual ITC experiment, run 1): 2.5 nM
Kd (CAMKK2-KD; read-out: KD Run 2, individual ITC experiment, run 2): 2 nM
IC50 (CAMKK1-FL): 182 nM

Cc1cc(Nc2nc(N[C@@H](C)c3ccc(F)cc3)c(C#N)cc2F)[nH]n1 [AZ 960]
ΔTm at 10 µM [1]: 4.3 °C

COc1cc(N2CCC(N)CC2)ccc1Nc1ncc(Cl)c(-c2c[nH]c3ccccc23)n1 [AZD3463]
ΔTm [1]: 9.3 °C

C=CC(=O)Nc1cc(Nc2nccc(-c3cn(C)c4ccccc34)n2)c(OC)cc1N(C)CCN(C)C [AZD9291]
ΔTm at 10 µM [1]: 4.1 °C

Nc1nc(Nc2ccc(S(N)(=O)=O)cc2)nn1C(=O)c1c(F)cccc1F [Aurora/Cdk Inhibitor]
ΔTm [2, 5]: 4.3 °C

CC[C@@H]1C(=O)N(C)c2cnc(Nc3ccc(C(=O)N[C@H]4CC[C@H](N5CCN(CC6CC6)CC5)CC4)cc3OC)nc2N1C(C)C [BI 6727, Volasertib]
IC50 (CAMKK2-FL): 44 nM
ΔTm at 10 µM [1]: 6 °C
IC50 (CAMKK1-FL): 87 nM

Cn1cc(C2=C(c3cn(CCCSC(=N)N)c4ccccc34)C(=O)NC2=O)c2ccccc21 [BIM IX]
ΔTm [2, 5]: 8.1 °C

CN(C)CCCn1cc(C2=C(c3c[nH]c4ccccc34)C(=O)NC2=O)c2ccccc21 [BIM I]
IC50 (CAMKK1-FL): 2590 nM
ΔTm [2, 5]: 7.2^e °C

CCOc1ccn(-c2ccc(F)cc2)c(=O)c1C(=O)Nc1ccc(Oc2ccnc(N)c2Cl)c(F)c1 [BMS-777607]
ΔTm at 10 µM [1]: 4.7 °C

O=C(NCCCNc1nc(Nc2cccc(NC(=O)N3CCCC3)c2)ncc1I)c1cccs1 [BX-795]
ΔTm at 10 µM [1]: 5.1 °C

COc1cc2c(Nc3cc(Cl)c(OC)c(Cl)c3)c(C#N)cnc2cc1OCCCN1CCN(C)CC1 [Bosutinib isomer]
ΔTm [2, 5]: 4.1 °C

Cc1cc(CN2CCN(c3c(Br)cnc4nc(-c5ccc(N6CCN(C)CC6)cc5)[nH]c34)CC2)no1 [CCT137690]
ΔTm [1]: 4.7 °C

O=C1NCCCc2c1oc1ccc(O)cc21 [CID 755673]
ΔTm [2, 5]: 4.4 °C

C=CC(=O)Nc1cccc(Nc2nc(Nc3ccc(N4CCN(C(C)=O)CC4)cc3OC)ncc2C(F)(F)F)c1 [CO-1686]
ΔTm at 10 µM [1]: 4.4 °C

Cc1nc(N)sc1-c1ccnc(Nc2ccc(N3CCOCC3)cc2)n1 [CYC116]
ΔTm at 10 µM [1]: 4.4 °C

N#CCNC(=O)c1ccc(-c2ccnc(Nc3ccc(N4CCOCC4)cc3)n2)cc1 [CYT387]
ΔTm at 10 µM [1]: 4.3 °C

CC1(COc2ccc3c(c2)ncn3-c2ccc3cccc(N4CCC(N)CC4)c3n2)COC1 [Crenolanib (CP-868596), Crenolanib]
IC50 (CAMKK2-FL): 21 nM
ΔTm at 10 µM [1]: 10.6 °C
IC50 (CAMKK1-FL): 82 nM

CO[C@@H](C(=O)N1Cc2n[nH]c(NC(=O)c3ccc(N4CCN(C)CC4)cc3)c2C1)c1ccccc1 [Danusertib]
ΔTm at 10 µM [1]: 5.1 °C

CN1CCN(c2ccc3nc(-c4c(N)c5c(F)cccc5[nH]c4=O)[nH]c3c2)CC1 [Dovitinib]
ΔTm at 12 µM [2, 5]: 6.9 °C

c1ccc(-c2cnc(Nc3ccc(OCCN4CCCC4)cc3)s2)cc1 [Flt3 Inhibitor III]
ΔTm [2, 5]: 7.5 °C

COc1cc2c(Oc3ccc(NC(=O)C4(C(=O)Nc5ccc(F)cc5)CC4)cc3F)ccnc2cc1OCCCN1CCOCC1 [Foretinib]
IC50 (CAMKK2-FL): 1300 nM
ΔTm at 10 µM [1]: 6.3 °C

CNc1nc(Nc2cnn([C@H]3CCN(C4COC4)C[C@@H]3F)c2Cl)ncc1C(F)(F)F [GNE-9605]
ΔTm [1]: 6.4 °C

O=C(O)c1ccc(-c2c[nH]c3ncc(-c4ccccc4)cc23)cc1C1CCCC1 [GSK650394]
ΔTm at 10 µM [1]: 16.2 °C
ΔG Run 1 (CAMKK2-KD; [3]): -46.2 kJ/mol
ΔH Run 1 (CAMKK2-KD; [3]): -87.5 kJ/mol
ΔG Run 2 (CAMKK2-KD; [4]): -45.8 kJ/mol
ΔH Run 2 (CAMKK2-KD; [4]): -79.1 kJ/mol

C[C@@H](Oc1cc(-n2cnc3ccc(OC[C@@H](O)CO)cc32)sc1C(N)=O)c1ccccc1Cl [GSK978744A]
ΔTm at 12 µM [2, 5]: 4.9 °C

O=C1NC(=O)/C(=C/c2ccc3nccc(-c4ccncc4)c3c2)S1 [GSK1059615]
ΔTm at 10 µM [1]: 4.4 °C

CN(c1ccc(NC(=O)Nc2ccc(OC(F)(F)F)cc2)cc1)c1ccnc(Nc2cccc(S(N)(=O)=O)c2)n1 [GW806742X]
ΔTm at 12 µM [2]: 5.8 °C
